Data from patent US7939322B2, “Cells expressing pluripotency markers and expressing markers characteristic of the definitive endoderm” (Centocor Ortho Biotech Inc., priority 2008, dated 2011).

Experiments:
[1] = tested on: expanded cells derived from human embryonic stem cell line H9; test: Real-time PCR of DE and visceral endoderm markers in expanded cells; format: cell-based
Experimental: Real-time PCR amplification and quantitative analysis: Unless otherwise stated, all reagents were purchased from Applied Biosystems. Real-time PCR reactions were performed using the ABI PRISM® 7900 Sequence Detection System. TAQMAN® UNIVERSAL PCR MASTER MIX® (ABI, CA) was used with 20 ng of reverse transcribed RNA in a total reaction volume of 20 μl. Each cDNA sample was run in duplicate to correct for pipetting errors. Primers and FAM-labeled TAQMAN® probes were used at concentrations of 200 nM. The level of expression for each target gene was normalized using a human glyceraldehyde-3-phosphate dehydrogenase (GAPDH) endogenous control previously developed by Applied Biosystems. SOX-17 primers were designed using the PRIMERS program (ABI, CA) and were the following sequences: SOX-17: TGGCGCAGCAGATACCA, AGCGCCTTCCACGACTTG, and […]. After an initial incubation at 50° C. for 2 min followed by 95° C. for 10 min, samples were cycled 40 times in two stages—a denaturation step at 95° C. for 15 sec followed by an annealing/extension step at 60° C. for 1 min. Data analysis was carried out using GENEAMP®7000 Sequence Detection System software. For each primer/probe set, a Ct value was determined as the cycle number at which the fluorescence intensity reached a specific value in the middle of the exponential region of amplification. Relative gene expression levels were calculated using the comparative Ct method. Briefly, for each cDNA sample, the endogenous control Ct value was subtracted from the gene of interest Ct to give the delta Ct value (ΔCt). The normalized amount of target was calculated as 2-ΔCt, assuming amplification to be 100% efficiency. Final data were expressed relative to a calibrator sample.
Cultures derived from the parental human embryonic stem cell line H9 according to the methods described in Example 6 were passaged every 4-7 days. FIG. 5 depicts real-time PCR results for the expanded cells cultured in 2% FBS+DMEM-F12+100 ng/ml of activin-A+20 of WNT3A for three passages. […] There is a clear decrease in DE markers, such as SOX-17 and HNF-3 beta following each passage. […]

[2] = tested on: EXPRES 03 cells; test: Proliferation and cell cycle analysis (BRDU incorporation, 7AAD); format: cell-based, human
Experimental: Methods: Cells were seeded at 5,000-10,000 cells/cm^2 in Cell Bind tissue culture flasks (Corning) and cultured for 2-4 days. EXPRES 03 cells were cultured either in growth medium containing 2% FBS in DMEM/F12 and Activin-A (100 ng/ml), wnt3a (10-20 ng/ml) and IGF (50 ng/ml). For comparative proliferation analysis, IGF was sometimes omitted from the growth factor cocktail. Cell proliferation was analyzed using the APC BRDU Flow kit according to the Manufacturer's recommendations (BD Biosciences, San Diego, Calif.). Briefly, cells were pulsed with BRDU for 1-2 hrs at the end of culture period, released using Tryple E Express and counted. Cells were fixed in BD Cytofix/Cytosperm Buffer, incubated for 30 min, followed by incubation with BD Cytoperm buffer for 10 minutes on ice. Cells were then treated with DNAse for 1 hr at 37° C. to expose incorporated BRDU, followed by staining with APC conjugated anti-BRDU antibody. For cell cycle analysis, cells were stained with 7AAD, and analyzed on FACS Array.

[3] = tested on: EXPRES cells; test: Population doubling time of EXPRES cells in growth media; format: cell-based, human; conditions: H9-derived EXPRES cells on TCPS, hypoxic; IGF-I at 50 ng/ml added to growth media (DMEM-F12+2% FBS+100 ng/ml activin-A+20 ng/ml WNT-3A)
Experimental: Cells from the human embryonic stem cell lines H1 and H9 various passages (Passage 30-54) were cultured under hypoxic conditions (approximately 3% 02) for at least three passages. The cells were cultured in MEF-CM supplemented with 8 ng/ml of bFGF and plated on MATRIGEL coated plates according to Example 1. The cells were exposed to the DE protocol outlined in Example 5. At days 3-6, the cultures were exposed to TrypLE™ Express solution (Invitrogen, CA) for 5 mins. Released cells were resuspended in DMEM-F12+2% FBS medium, recovered by centrifugation, and counted using a hemocytometer. The released cells were seeded at 1000-10,000 cells/cm^2 on tissue culture polystyrene (TCPS) treated flasks and cultured in DMEM-F12+2% FBS+100 ng/ml activin-A+20 ng/ml WNT-3A under hypoxic conditions (approximately 3% O2) at 37° C. in standard tissue culture incubator. The TCPS flaks were not coated with MATRIGEL or other extracellular matrix proteins. The media was changed daily. In some cultures, the media was further supplemented with 10-50 ng/ml of IGF-I (insulin growth factor-I from R&D Systems, MN) or 1×ITS (Insulin, transferrin, and selenium from Invitrogen, Ca). In some of the culture conditions the basal media (DM-F12+2% FBS) was further supplemented with 0.1 mM mercaptoethanol (Invitrogen, CA) and non-essential amino acids (1×, NEAA from Invitrogen, CA). […]

[4] = tested on: human embryonic stem cell line H9; test: Attachment of single human embryonic stem cells on uncoated TCPS with or without ROCK inhibitor; format: cell-based; conditions: 10 μm ROCK inhibitor, 24 hrs after seeding on TCPS, hypoxic (approximately 3% O2), compared to cultures without ROCK inhibitor
Experimental: Cells from the human embryonic stem cell line H9 at passage 35 lines were cultured under hypoxic conditions (approximately 3% O2) for at least three passages. The cells were cultured in MEF-CM supplemented with 8 ng/ml of bFGF and plated on MATRIGEL coated plates according to Example 1. At approximately 60% confluency, the cultures were exposed to TrypLE™ Express solution (Invitrogen, CA) for 5 mins. Released cells were resuspended in DM-F12+2% FBS medium, recovered by centrifugation, and counted using a hemocytometer. The released cells were seeded at 1000-10,000 cells/cm^2 on tissue culture polystyrene (TCPS) flasks and cultured in DM-F12+2% FBS+100 ng/ml activin-A+20 ng/ml WNT-3A+50 ng/ml of IGF-I+0.1 mM mercaptoethanol (Invitrogen, CA), non-essential amino acids (1×, NEAA from Invitrogen, CA)+/−10 μm ROCK inhibitor (Y-27632, Calbiochem, CA) under hypoxic conditions (approximately 3% O2) at 37° C. in a standard tissue culture incubator. The TCPS flaks were not coated with MATRIGEL or other extracellular matrix proteins. The media was changed daily. The first passage cells are referred to as P1. […] EXPRES cells derived using the ROCK inhibitor, Y27632 were designated as EXPRES 15.

[5] = tested on: Mouse Embryo Fibroblast (MEF); test: Cell cycle analysis of mitomycin treated feeder cells; format: cell-based
Experimental: MEF cells, derived from E13 to 13.5 mouse embryos, were purchased from Charles River. MEF cells were expanded in DMEM medium supplemented with 10% FBS (Hyclone), 2 mM glutamine, and 100 mM MEM nonessential amino acids. Sub-confluent MEF cell cultures were treated with 10 μg/ml mitomycin C (Sigma, St. Louis, Mo.) for 3 h to arrest cell division, then trypsinized and plated at 2×10^4/cm2 on 0.1% bovine gelatin-coated dishes. MEF cells from passage two through four were used as feeder layers. […] For cell cycle analysis, cells were stained with 7AAD, and analyzed on FACS Array.

[6] = tested on: EXPRES 02 cells; test: CXCR4 expression by FACS after DE differentiation; format: cell-based, human; conditions: passage 14, day 4; 100 nM GSK-3B inhibitor IX with 0.5% FBS, 20 ng/ml WNT-3a, 100 ng/ml activin-A (about 40% in earlier protocol without inhibitor)
Experimental: (§1) Adhered human embryonic stem cells were removed from culture plates by a five-minute incubation with TrypLE™ Express solution (Invitrogen, CA). Released cells were resuspended in human embryonic stem cell culture medium and recovered by centrifugation, followed by washing and resuspending the cells in a staining buffer consisting of 2% BSA, 0.05% sodium azide in PBS (Sigma, Mo.). As appropriate, the cells were Fc-receptor blocked for 15 minutes using a 0.1% γ-globulin (Sigma) solution. […] Controls included appropriate isotype matched antibodies, unstained cells, and cells stained only with secondary conjugated antibody. All incubations with antibodies were performed for 30 mins at 4° C., after which the cells were washed with the staining buffer. Samples that were stained with unconjugated primary antibodies were incubated for an additional 30 mins at 4° C. with secondary conjugated PE or -APC labeled antibodies. See Table IB for a list of secondary antibodies used. Washed cells were pelleted and resuspended in the staining buffer, and the cell surface molecules were identified using a FACS Array (BD Biosciences) instrument, collecting at least 10,000 events. […]

[7] = tested on: EXPRES 01 cells; test: CXCR4 expression by FACS after DE differentiation; format: cell-based, human; conditions: passage 19, day 4; 100 nM GSK-3B inhibitor IX with 0.5% FBS, 20 ng/ml WNT-3a, 100 ng/ml activin-A (about 17% in earlier protocol without inhibitor)
Experimental: as §1

[8] = addition of 50 ng/ml IGF-I and withdrawal of Activin-A and WNT-3A

In the case of “IGF-I: insulin growth factor-I from R&D Systems; recombinant human IGF-1”, the “expression of DE markers along with OCT-4” value [1, 8] is reported as “precipitous drop”, the “expression of visceral endoderm markers, such as SOX-7 and AFP” value [1, 8] is reported as “increase” and the “frequency of cells in S-phase, presence versus absence of IGF” value ([2]; BRDU exposure for 1 hour or more) is reported as “only marginal differences”. For the same compound, the “number of cells grown in presence of IGF relative to absence of IGF” value ([2]; IGF 50 ng/ml, after 3-4 days) was 2-3 times and the population doubling time [3] was “approximately 55 hrs”.

`C[C@@H](N)[C@H]1CC[C@H](C(=O)Nc2ccncc2)CC1` [Y-27632] was tested, and the “number of attached cells” value [4] was “significantly larger number of attached cells”.

In the case of `CO[C@@]12[C@H](COC(N)=O)C3=C(C(=O)C(C)=C(N)C3=O)N1C[C@@H]1N[C@@H]12` [mitomycin, mitomycin C], the “cells in G2/M phase” value [5] is reported as 64%.

`O=C1Nc2cc(Br)ccc2/C1=C1/Nc2ccccc2/C1=N\O` [GSK-3B inhibitor IX] was tested, and the CXCR4 positive cells [6] was “approximately 86%” and the CXCR4 positive cells [7] was “approximately 57%”.

In the case of WNT3A, the “expression of DE markers” value ([1]; WNT3A added to growth media containing activin-A) is reported as “significant boost”.
